Results on one compound are retold here after paper PMC10423218, “Molecular mechanism underlying regulation of Arabidopsis CLCa transporter by nucleotides and phospholipids” (Nature Communications, 2023).

Holding throughout (assay): whole-cell patch clamp, HEK293T
Common to all, as to assay type: cell-based
On the technique in general: Patch clamp records ionic current or voltage across a cell membrane.

The target of test [1] is T1, AtCLCa (Arabidopsis thaliana, UniProt P92941, D753A).
T1 construct: gene CLC-A; full-length, homodimer; structures: Pichia pastoris GS115, C-terminal GFP-6xHis tag cut by TEV, MSP1D1 nanodiscs; patch clamp: pKH3 vector in HEK293T
T1 sequence (P92941 1-775 D753A): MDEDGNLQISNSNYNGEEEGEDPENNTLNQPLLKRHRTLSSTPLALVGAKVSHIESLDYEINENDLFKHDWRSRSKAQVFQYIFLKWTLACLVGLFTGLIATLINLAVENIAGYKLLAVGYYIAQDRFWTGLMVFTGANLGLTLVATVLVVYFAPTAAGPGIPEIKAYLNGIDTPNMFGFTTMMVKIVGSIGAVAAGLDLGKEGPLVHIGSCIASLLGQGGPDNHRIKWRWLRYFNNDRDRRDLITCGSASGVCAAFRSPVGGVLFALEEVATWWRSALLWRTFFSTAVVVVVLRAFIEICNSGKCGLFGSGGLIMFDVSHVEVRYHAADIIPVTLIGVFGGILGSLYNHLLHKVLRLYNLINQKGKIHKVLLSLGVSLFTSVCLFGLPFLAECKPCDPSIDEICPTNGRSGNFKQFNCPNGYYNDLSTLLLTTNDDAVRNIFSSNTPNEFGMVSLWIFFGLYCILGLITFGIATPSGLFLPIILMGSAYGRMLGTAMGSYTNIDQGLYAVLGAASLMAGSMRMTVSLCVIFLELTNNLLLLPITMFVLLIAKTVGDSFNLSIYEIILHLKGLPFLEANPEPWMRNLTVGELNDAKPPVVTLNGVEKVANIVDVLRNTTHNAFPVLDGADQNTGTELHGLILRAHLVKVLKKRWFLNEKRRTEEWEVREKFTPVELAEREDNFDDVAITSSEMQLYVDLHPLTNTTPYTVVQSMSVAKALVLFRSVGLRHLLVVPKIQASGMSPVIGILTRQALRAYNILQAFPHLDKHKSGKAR
As to conditions: 5 mM in pipette (cytosolic side); nitrate bath; pH 7.4.

For a further test, the target named is T2, AtCLCa ΔN53 mutant (Arabidopsis thaliana, UniProt P92941).
T2 construct: gene CLC-A; N-terminal deletion ΔN53 (beta-hairpin residues 44-53 removed), homodimer, pKH3 vector in HEK293T
T2 sequence (P92941 54-775): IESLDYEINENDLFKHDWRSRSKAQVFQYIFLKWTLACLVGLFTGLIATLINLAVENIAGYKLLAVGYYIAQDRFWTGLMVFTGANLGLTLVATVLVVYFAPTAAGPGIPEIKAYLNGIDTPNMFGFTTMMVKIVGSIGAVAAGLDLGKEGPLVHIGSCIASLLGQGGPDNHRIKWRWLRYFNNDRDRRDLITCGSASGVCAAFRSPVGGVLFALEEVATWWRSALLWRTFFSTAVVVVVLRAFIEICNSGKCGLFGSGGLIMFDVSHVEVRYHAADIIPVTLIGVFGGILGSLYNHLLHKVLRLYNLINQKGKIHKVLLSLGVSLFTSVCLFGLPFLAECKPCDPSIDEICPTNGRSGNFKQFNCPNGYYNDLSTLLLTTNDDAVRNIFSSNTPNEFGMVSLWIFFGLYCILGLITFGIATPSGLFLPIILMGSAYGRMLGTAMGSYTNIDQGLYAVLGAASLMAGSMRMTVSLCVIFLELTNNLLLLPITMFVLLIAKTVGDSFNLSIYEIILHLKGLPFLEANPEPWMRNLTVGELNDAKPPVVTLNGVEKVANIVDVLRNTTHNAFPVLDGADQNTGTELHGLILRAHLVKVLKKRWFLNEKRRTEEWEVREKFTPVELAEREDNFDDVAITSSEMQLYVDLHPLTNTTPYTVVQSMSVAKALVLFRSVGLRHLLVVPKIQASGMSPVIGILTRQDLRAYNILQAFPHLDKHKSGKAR
As to conditions: 5 mM in pipette (cytosolic side); nitrate bath; pH 7.4.

For test [2], the target named is T3, AtCLCa (Arabidopsis thaliana, UniProt P92941).
T3 sequence (P92941 1-775): T1 sequence (P92941 1-775 D753A) with A753D
Also on record: gene CLC-A; full-length, homodimer; patch clamp: pKH3 vector in HEK293T. As to conditions: 5 mM in pipette (cytosolic side); nitrate bath; pH 7.4; 5 mM MgCl2; room temperature.

Residue numbers refer to the chain shown, from its start.

With `Nc1ncnc2c1ncn2[C@@H]1O[C@H](COP(=O)(O)OP(=O)(O)OP(=O)(O)O)[C@@H](O)[C@H]1O` [ATP], the figures for the “inhibition of NO3^- currents at 5 mM” value against AtCLCa [1] and at AtCLCa ΔN53 mutant were “D753A mutant impairs the inhibition of ATP” and “the NO3^− currents in ΔN53 mutant are not influenced by the addition of ATP”, respectively. The “decrease of NO3^- currents at 5 mM” value at AtCLCa [2] was “led to a decrease of approximately half of the NO3^− currents induced by wild-type AtCLCa”.
